# Measured values taken from patent US7465718B2, “Ansamycins having improved pharmacological and biological properties” (Conforma Therapeutics Corporation, priority 2002, dated 2008).
# Legend:
# PBMC = assay: MTS assay to measure cytotoxicity of PBMC; type: cell-based, human; conditions: PBMCs without virus, read-out: TC50 (μM) (50% cytotoxicity)
# Procedure: PBMC's in 96 well plates that were treated with compounds (without virus) were assayed for cell viability and compound toxicity using an MTS assay (CellTiter 96 Aqueous Non-Radioactivity Cell Proliferation Assay, Promega, Madison; Wis.).
# HIV-1ROJO = assay: Anti-HIV PBMC assay (reverse transcriptase activity in supernatant)
# Her-2 = assay: HER2 inhibition assay (Her-2 degradation in MCF7 cells, flow cytometry); type: cell-based; conditions: read-out: HER-2 degradation (IC50 nM)
# Procedure: MCF7 cells are seeded in 24 well plates at a density of approximately 30,000 cells/well and allowed to grow for 16 hours in DMEM supplemented with 10% FBS. Drug is then added at a concentration range of 100 uM to 0.01 uM. Cells are incubated for an additional 24. […] 10,000 events were collected per sample. A fluorescence histogram was generated and the mean fluorescence intensity (mfi) of each sample was determined using Cellquest software. The background was defined as the mfi generated from cells incubated with control IgG, and was subtracted from each sample stained with the HER-2/neu Ab. Percent degradation of Her-2 was calculated as follows: % Her-2 degradation=(mfi HER-2 sample)/(mfi HER-2 untreated cells)×100 Water Solubility Studies
# [1] = Water solubility studies (salts dissolved in water at room temperature); type: physicochemical; conditions: thermodynamic from solid, HCl salt, read-out: Solubility of the HCl salt in H2O
# Procedure: Various salts were prepared as described in the example section and dissolved in water at room temperature.
# A549 xenografts = assay: A549 xenograft growth in vivo; conditions: IP injections, three consecutive days each week for four weeks
# Description: Similar efficacy has been seen with five second-generation ansamycins, some of which are being developed as back-ups to Compound#237.
# MDA435 breast tumor = MDA435 breast tumor model; type: in vivo, nude mice; conditions: four courses of therapy; 25 or 30 mg/kg, 40 or 50 mg/kg
# Procedure: When the tumors were ˜50 mm3 in size, the animals were randomized into groups of five (10 tumors/group). Therapy commenced under the schedule described for the A549 model. Animals were treated with vehicle (triangles) or one of two doses (25 or 30 mg/kg, squares; 40 or 50 mg/kg, circles) of drugs.
# SKOV-3 ovarian xenograft = SKOV-3 ovarian xenograft model; type: in vivo; conditions: tumors 200 mm3 before commencement of treatment
# Description: Compounds have also been tested in HER-2 over-expressing tumor models such as BT474 breast and SKOV-3 ovarian carcinoma A therapy experiment with SKOV-3 is shown in FIG. 6. The treatment, doses, and schedule were the same as used in the A549 and MDA435 experiments. In this case, the tumors were allowed to become established and grow to a relatively large size (200 mm3) before commencement of treatment.
# [2] = system: primary human breast tumor xenograft; assay: Transplantable primary human breast tumor xenograft model; type: in vivo; conditions: 30 mg/kg intraperitoneally
# [3] = system: HSP90 (cell lysate, high affinity); assay: Biotin-geldanamycin competition binding, HSP90 in cell lysate (high affinity)
# rHsp90 (low affinity) = assay: Biotin-geldanamycin competition binding, purified native HSP90 protein (rHsp90, low affinity); conditions: read-out: rHsp90 (low affinity) IC50 nM; inhibition of biotin-GM binding to purified HSP90, 4° C.
SMILES,CC50 (PBMC) [µM],"TI (therapeutic index, TC50/IC50) (HIV-1ROJO; HIV-1ROJO in PBMCs)","IC50 (HIV-1ROJO; read-out: IC50 (μM) (50% inhibition of virus replication), HIV-1ROJO in fresh human PBMCs, 7 days) [µM]",IC50 (Her-2) [nM],solubility [1] [mg/mL],growth of A549 xenografts (A549 xenografts),inhibition of tumor growth in MDA435 (MDA435 breast tumor) [%],tumor growth in SKOV-3 xenograft (SKOV-3 ovarian xenograft),tumor growth inhibition in primary human breast tumor xenograft [2] [%],melting point [°C],ratio ([3]; rHsp90 (low affinity) IC50 over lysate (high affinity) IC50),"IC50 ([3]; read-out: Lysate (high affinity) IC50 nM, inhibition of biotin-GM binding to HSP90 in cell lysate, 4° C.) [nM]",IC50 (rHsp90 (low affinity)) [nM]
"Cc1cn([C@H]2C[C@H](N=[N+]=[N-])[C@@H](CO)O2)c(=O)[nH]c1=O [AZT Control, reference compound]",> 1,>197.6,0.0051,,,,,,,,,,
COC1C=CC=C(C)C(=O)NC2=CC(=O)C(NCCCNCCCNC3=C4CC(C)CC(OC)C(O)C(C)C=C(C)C(OC(N)=O)C(OC)C=CC=C(C)C(=O)NC(=CC3=O)C4=O)=C(CC(C)CC(OC)C(O)C(C)C=C(C)C1OC(N)=O)C2=O (stereo not shown) [Compound #237],,,,20,≥ 13,blocks the growth,70 to 100,suppressed tumor growth almost completely,86,165,67,30,2000
